“And” between values parts separate entries of the source, which are not always exact repeats. Equal values may be shown once.
Assays:
Assay type in all cases: in vivo, human
migraine [1] = test: Case studies 1-3: oral LAT8881 capsules taken during a migraine attack, self-rated pain and nausea
migraine [2] = test: Case study 4: LAT8881 injected into the right greater occipital nerve during a migraine attack; conditions: 0.4 mg injected into right greater occipital nerve
Method: The subject was a person that suffers from migraines and occipital neuralgia. The subject presented with bilateral tenderness of both occipital nerve sites and bilateral headaches, bitemporally and behind the eyes, all indicative of a migraine attack.
Dosage: 0.4 mg of LAT8881 (SEQ ID NO:2) injected into the right greater occipital nerve.

migraine headache = test: Randomised, placebo-controlled, double-blind, crossover proof of concept study of oral LAT8881 in acute migraine headache; conditions: 60 mg oral
Text: The primary objective of this study was to evaluate the effect of oral LAT8881 on migraine headache compared with placebo, when assessed by the headache severity on an 11-point Numeric Rating Scale (NRS).
The secondary objectives of this study included: • a) to evaluate the effect of oral LAT8881 on migraine-associated symptoms compared with placebo, when assessed by the change in symptoms based on a 11-point Likert scale; • b) to investigate the percentage of subjects achieving “no headache pain” following treatment with oral LAT8881 compared with placebo at any time-point to 8 hours post dose, with no use of rescue medication; and • c) to evaluate the safety and tolerability of single doses of oral LAT8881 in subjects with migraine headache.
This was a randomised, placebo-controlled, double-blind, crossover, Phase Ha proof of concept study to investigate the efficacy and safety of oral LAT8881 (SEQ ID NO:2) in acute migraine headache with or without aura.
Subjects entered into the study were randomised to receive IMP (LAT8881; 60 mg or placebo), taken at the onset (within one hour from the onset of pain) of a migraine headache of moderate to severe intensity [Numeric rating scale (NRS)≥4]. Subjects were advised not to take rescue medication until at least 2 hours post dose with LAT8881. Subjects were given one dose of IMP (2 capsules), to treat one migraine headache.
After treatment of one migraine headache (or a maximum 28 days), the subject was asked to return to the clinic for re-evaluation and crossover to the second treatment. In the second treatment period, subjects were asked to take IMP in the same manner as in treatment period 1.
Subjects entered into the study were randomised to receive IMP (LAT8881; 60 mg or placebo; orally), to be taken at the onset (within one hour from the onset of pain) of a migraine headache of moderate to severe intensity.
Primary efficacy endpoints included a change in migraine headache pain score, using an 11-point NRS, (0=none, 10=worst imaginable), from the time of dosing to 0.5, 1.0, 1.5, 2, 4, 8 and 24 hours post dose. Pain was recorded in the subject' diary and was expected to reflect the subject's pain at the time of recording.
Secondary efficacy endpoints included: • a) Change in migraine-associated symptoms of nausea, photophobia and phonophobia. Symptoms were assessed on an 11-point Likert scale with 0=no symptoms and 10 being severe symptoms at time of dosing and at 0.5, 1.0, 1.5, 2, 4, 8 and 24 hours post dose; • b) Change in each subject's most troublesome symptom that may include nausea, photophobia and phonophobia cognitive impairment, dizziness and functional disability. Symptoms were assessed on an 11-point Likert scale with 0=no symptoms and 10 being severe symptoms at time of dosing and at 0.5, 1.0, 1.5, 2, 4, 8 and 24 hours post dose; and • c) The percentage of subjects achieving “no headache pain” at 0.5, 1.0, 1.5, 2, 4 and 8 hours post dose.
Post-hoc analyses were undertaken to assess the responder rate at each time point after dose of IMP. Two classifications of responder were defined: at least 30% change from baseline in NRS score and an NRS score of less than or equal to 3 at the post dose time points. After unblinding, it was discovered that one subject had recorded a pre-dose NRS score of 2 in period 1, a major protocol deviation as the instructions were to take IMP within one hour of the onset of a migraine headache of moderate to severe intensity (NRS>=4). This subject's data for this period was excluded. The responder rate for each treatment and difference between LAT8881 and placebo (95% confidence interval) at each time point are provided in Table 2, below (P1=Period 1; P2=Period 2; Photo=Photophobia; Phono=Phonophobia). FIGS. 1-4 show selected examples of NSR Pain Scores of subjects that completed the study and who received treatment with either placebo or with LAT8881 (SEQ ID NO:2; 60 mg per dose, orally).

[3] = Case Study 2, 1 mg, 4 hours after dosing, 8 out of 10 at time of dosing
[4] = 2 subjects menstruating at the time of the migraine, NRS pain score
[5] = of the 15 subjects who completed the study
[6] = subjects who showed a benefit, NRS pain score
[7] = subjects who were slightly worse, NRS pain score

Sequence: YLRIVQCRSVEGSCGF (listed as Homo sapiens) [LAT8881, C-terminal fragment of human growth hormone (hGH) spanning amino acid residues 178-192, with an additional tyrosine residue at the N-terminus]
- migraine pain rating (migraine [1]; Case Study 1, 1 mg (four 0.25 mg capsules), an hour after dosing, 8 out of 10 at time of dosing): 7 out of 10
- nausea rating (migraine [1]; Case Study 1, 1 mg, 4 hours after dosing, 7 out of 10 at time of dosing): 3 out of 10
- migraine pain rating (migraine [1]; Case Study 1, 1 mg, 4 hours after dosing, 8 out of 10 at time of dosing): 6 out of 10
- nausea rating (migraine [1]; Case Study 1, 1 mg, an hour after dosing, 7 out of 10 at time of dosing): 5 out of 10
- migraine recurrence after dosing (migraine [1]; Case Study 1, 1 mg, subject averages about one migraine per month): No migraine was reported in the following month
- migraine pain rating (migraine [1]; Case Study 2, 1 mg (two 0.5 mg capsules), an hour after dosing, 8 out of 10 at time of dosing): 2 out of 10
- migraine pain rating (migraine [1]; [3]): 1 out of 10
- nausea rating (migraine [1]; [3]): 1 out of 10
- nausea rating (migraine [1]; Case Study 2, 1 mg, an hour after dosing, 8 out of 10 at time of dosing): 2 out of 10
- migraine recurrence after dosing (migraine [1]; Case Study 2, 1 mg, subject averages about two migraines per month): No migraines reported in the following two months
- nausea rating (migraine [1]; Case Study 3, 0.5 mg, overnight, 0 out of 10 at time of dosing): 0 out of 10
- migraine recurrence after dosing (migraine [1]; Case Study 3, 0.5 mg, subject has migraines once every 3-6 months): No migraines reported in the following three months
- migraine pain reported by subject (migraine [2]; Case Study 4, migraines and occipital neuralgia, within ten minutes): pain-free
- other effects reported by subject (migraine [2]; Case Study 4): mental clarity and loss of brain fog
- tenderness over the occipital nerve (migraine [2]; Case Study 4, within ten minutes, bilateral tenderness at presentation): no tenderness on either side over the occipital nerve
- average score reduction in menstruating subjects (migraine headache; [4]): 6
- range of score reduction in menstruating subjects (migraine headache; [4]): 10 to 2
- Nausea change 2 hrs LAT8881 (migraine headache; 11-point Likert scale, individual subjects): 0 (2×) and −5 (2×) and −10 and 1 and −1 (4×) and −2 (2×) and 2 and −8 and 3 and −3 and 6
- LAT8881 pain score at 2 hours (migraine headache; 11-point NRS (0=none, 10=worst imaginable), individual subjects): 2 and 1 and 0 and 5 (2×) and 8 (3×) and 6 (4×) and 3 (2×) and 4 and 7 and 9
- Responder rate (95% CI), 30% change from baseline (migraine headache; 30 minutes post dose): 0
- Responder rate (95% CI), NRS Score <= 3 (migraine headache; 30 minutes post dose): 0
- Count/Total, NRS Score <= 3 (migraine headache; 30 minutes post dose, responder = NRS score of less than or equal to 3): 0/16
- Count/Total, 30% change from baseline (migraine headache; 30 minutes post dose, responder = at least 30% change from baseline in NRS score): 0/16
- Count/Total, 30% change from baseline (migraine headache; 1 hour post dose): 2/16
- Count/Total, NRS Score <= 3 (migraine headache; 1 hour post dose): 1/16
- Responder rate (95% CI), 30% change from baseline (migraine headache; 1 hour post dose): 12.50
- Responder rate (95% CI), 30% change from baseline, difference LAT8881 60 mg-Placebo (migraine headache; 1 hour post dose): 12.5 (−3.7, 28.7)
- Responder rate (95% CI), NRS Score <= 3 (migraine headache; 1 hour post dose): 6.25
- Responder rate (95% CI), NRS Score <= 3, difference LAT8881 60 mg-Placebo (migraine headache; 1 hour post dose): 0 (−16.77, 16.77)
- Count/Total, 30% change from baseline (migraine headache; 1.5 hours post dose): 3/16
- Count/Total, NRS Score <= 3 (migraine headache; 1.5 hours post dose): 3/16
- Responder rate (95% CI), 30% change from baseline (migraine headache; 1.5 hours post dose): 18.75
- Responder rate (95% CI), 30% change from baseline, difference LAT8881 60 mg-Placebo (migraine headache; 1.5 hours post dose): 12.5 (−10, 35)
- Responder rate (95% CI), NRS Score <= 3 (migraine headache; 1.5 hours post dose): 18.75
- Responder rate (95% CI), NRS Score <= 3, difference LAT8881 60 mg-Placebo (migraine headache; 1.5 hours post dose): 12.5 (−10, 35)
- subjects menstruating at the time of the migraine who benefited (migraine headache; 2 hours): 2 out of 2
- Count/Total, 30% change from baseline (migraine headache; 2 hours post dose): 8/16
- Count/Total, NRS Score <= 3 (migraine headache; 2 hours post dose): 5/16
- Responder rate (95% CI), 30% change from baseline (migraine headache; 2 hours post dose): 50.00
- Responder rate (95% CI), 30% change from baseline, difference LAT8881 60 mg-Placebo (migraine headache; 2 hours post dose): 18.75 (−14.66, 52.16)
- Responder rate (95% CI), NRS Score <= 3 (migraine headache; 2 hours post dose): 31.25
- Responder rate (95% CI), NRS Score <= 3, difference LAT8881 60 mg-Placebo (migraine headache; 2 hours post dose): 25 (-0.62, 50.62)
- Count/Total, 30% change from baseline (migraine headache; 4 hours post dose): 8/16
- Count/Total, NRS Score <= 3 (migraine headache; 4 hours post dose): 5/16
- Responder rate (95% CI), 30% change from baseline (migraine headache; 4 hours post dose): 50.00
- Responder rate (95% CI), 30% change from baseline, difference LAT8881 60 mg-Placebo (migraine headache; 4 hours post dose): 0 (−34.65, 34.65)
- Responder rate (95% CI), NRS Score <= 3 (migraine headache; 4 hours post dose): 31.25
- Responder rate (95% CI), NRS Score <= 3, difference LAT8881 60 mg-Placebo (migraine headache; 4 hours post dose): −6.25 (-39.09, 26.59)
- Count/Total, 30% change from baseline (migraine headache; 8 hours post dose): 14/16
- Count/Total, NRS Score <= 3 (migraine headache; 8 hours post dose): 13/16
- Responder rate (95% CI), 30% change from baseline (migraine headache; 8 hours post dose): 87.50
- Responder rate (95% CI), 30% change from baseline, difference LAT8881 60 mg-Placebo (migraine headache; 8 hours post dose): 25 (−3.73, 53.73)
- Responder rate (95% CI), NRS Score <= 3 (migraine headache; 8 hours post dose): 81.25
- Responder rate (95% CI), NRS Score <= 3, difference LAT8881 60 mg-Placebo (migraine headache; 8 hours post dose): 25 (−5.93, 55.93)
- Count/Total, 30% change from baseline (migraine headache; 24 hours post dose): 16/16
- Count/Total, NRS Score <= 3 (migraine headache; 24 hours post dose): 15/16
- Responder rate (95% CI), 30% change from baseline (migraine headache; 24 hours post dose): 100.00
- Responder rate (95% CI), 30% change from baseline, difference LAT8881 60 mg-Placebo (migraine headache; 24 hours post dose): 12.5 (−3.7, 28.7)
- Responder rate (95% CI), NRS Score <= 3 (migraine headache; 24 hours post dose): 93.75
- Responder rate (95% CI), NRS Score <= 3, difference LAT8881 60 mg-Placebo (migraine headache; 24 hours post dose): 6.25 (−13.83, 26.33)
- LAT8881 change from baseline (migraine headache; NRS pain score, predose to 2 hours, individual subjects): −3 (3×) and −5 and −10 and 1 (3×) and 2 (2×) and −4 (2×) and −2 (3×) and −1 and 0
- Most Troublesome, change 2 hrs LAT8881 (migraine headache; most troublesome symptom, 11-point Likert scale, individual subjects): −5 (3×) and −10 and 3 (3×) and 0 (4×) and −4 and 1 and −2 (3×) and −1
- number of subjects slightly worse at 2 hours (migraine headache; [5]): 5
- number of subjects unchanged at 2 hours (migraine headache; [5]): 1
- number of subjects whose pain had reduced to 3 or less after 2 hours (migraine headache; [5]): 4
- number of subjects who showed a benefit at 2 hours (migraine headache; of the 15 subjects who completed the study, NRS pain score): 9
- Phono change at 2 hrs LAT8881 (migraine headache; phonophobia, 11-point Likert scale, individual subjects): 0 (9×) and −7 and 4 and 2 (2×) and −4 and −1 and −2 and 3
- Photo change at 2 hrs LAT8881 (migraine headache; photophobia, 11-point Likert scale, individual subjects): 0 (3×) and −2 (5×) and −7 and 1 (4×) and −6 (2×) and −4
- pain score reduction in the subject menstruating at the time of each treatment (migraine headache; placebo led to an increase of 3 in the same subject): 2
- median benefit at 2 hours (migraine headache; [6]): 3
- range of benefit at 2 hours (migraine headache; [6]): 1-10
- median increase at 2 hours (migraine headache; [7]): 2
- range of increase at 2 hours (migraine headache; [7]): 1-2

— US20220160815A1, “PEPTIDES AND USES THEREOF” (LATERAL IP PTY LTD, priority 2019, published 2022)
